Source: ChEMBL document CHEMBL5291721, “A preclinical secondary pharmacology resource illuminates target-adverse drug reaction associations of marketed drugs” (Nat Commun, 2023)

Columns and labels:
[1] = target: T1, Alpha-1A adrenergic receptor (Homo sapiens, UniProt P35348); type: functional, cell-based
T1 sequence (P35348 whole entry): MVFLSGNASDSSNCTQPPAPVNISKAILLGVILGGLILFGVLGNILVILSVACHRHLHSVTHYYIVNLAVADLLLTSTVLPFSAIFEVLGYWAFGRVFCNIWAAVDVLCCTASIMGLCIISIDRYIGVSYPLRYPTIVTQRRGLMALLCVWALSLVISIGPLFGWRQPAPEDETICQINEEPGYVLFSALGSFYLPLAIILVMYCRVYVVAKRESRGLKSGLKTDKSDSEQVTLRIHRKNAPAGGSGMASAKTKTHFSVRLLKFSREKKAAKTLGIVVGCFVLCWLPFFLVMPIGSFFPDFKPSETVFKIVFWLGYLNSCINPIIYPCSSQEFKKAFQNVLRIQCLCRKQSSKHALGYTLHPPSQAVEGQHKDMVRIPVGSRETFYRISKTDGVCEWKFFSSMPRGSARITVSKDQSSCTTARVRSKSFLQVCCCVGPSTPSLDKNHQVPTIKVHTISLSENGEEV

Vasopressin V1a receptor = Vasopressin V1a receptor (Homo sapiens, UniProt P37288)
Vasopressin V1a receptor, sequence (P37288 whole entry): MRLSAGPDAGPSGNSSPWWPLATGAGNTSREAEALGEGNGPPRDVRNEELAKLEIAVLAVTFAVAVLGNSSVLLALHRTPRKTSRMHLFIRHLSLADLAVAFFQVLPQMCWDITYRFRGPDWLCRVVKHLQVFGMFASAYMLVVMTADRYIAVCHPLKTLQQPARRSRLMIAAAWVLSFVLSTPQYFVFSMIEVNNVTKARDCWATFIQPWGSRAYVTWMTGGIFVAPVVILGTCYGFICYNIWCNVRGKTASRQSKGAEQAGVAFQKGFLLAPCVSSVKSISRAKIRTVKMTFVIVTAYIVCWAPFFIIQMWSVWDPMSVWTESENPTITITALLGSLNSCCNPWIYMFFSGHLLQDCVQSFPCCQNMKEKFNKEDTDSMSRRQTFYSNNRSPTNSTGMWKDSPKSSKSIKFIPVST

[2] = target: T2, Gastrin/cholecystokinin type B receptor (Homo sapiens, UniProt P32239)
T2 sequence (P32239 whole entry): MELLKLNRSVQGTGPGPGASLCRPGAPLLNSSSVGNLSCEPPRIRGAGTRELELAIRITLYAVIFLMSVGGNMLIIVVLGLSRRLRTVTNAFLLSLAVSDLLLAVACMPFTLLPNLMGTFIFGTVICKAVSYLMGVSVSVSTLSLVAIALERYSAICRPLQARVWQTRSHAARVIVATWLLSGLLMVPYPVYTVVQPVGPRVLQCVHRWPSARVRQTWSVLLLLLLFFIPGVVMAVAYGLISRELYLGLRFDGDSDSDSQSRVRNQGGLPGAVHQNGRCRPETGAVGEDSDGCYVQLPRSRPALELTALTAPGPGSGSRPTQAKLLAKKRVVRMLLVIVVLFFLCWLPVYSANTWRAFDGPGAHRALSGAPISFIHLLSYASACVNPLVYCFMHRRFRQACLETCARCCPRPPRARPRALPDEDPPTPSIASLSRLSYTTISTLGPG

[3] = target: Kappa-type opioid receptor (Homo sapiens, UniProt P41145)
Kappa-type opioid receptor, sequence (P41145 whole entry): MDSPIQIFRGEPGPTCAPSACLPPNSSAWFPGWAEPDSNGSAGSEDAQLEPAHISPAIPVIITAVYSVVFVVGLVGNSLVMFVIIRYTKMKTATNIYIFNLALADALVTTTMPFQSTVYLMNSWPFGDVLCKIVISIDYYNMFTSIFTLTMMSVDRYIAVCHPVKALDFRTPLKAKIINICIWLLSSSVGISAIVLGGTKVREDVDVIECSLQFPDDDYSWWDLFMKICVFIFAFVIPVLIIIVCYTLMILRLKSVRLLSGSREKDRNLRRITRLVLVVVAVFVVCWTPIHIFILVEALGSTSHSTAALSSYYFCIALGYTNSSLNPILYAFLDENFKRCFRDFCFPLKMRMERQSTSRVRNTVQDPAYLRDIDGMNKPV

Thromboxane A2 receptor [4] = target: T3, Thromboxane A2 receptor (Homo sapiens, UniProt P21731)
T3 sequence (P21731 whole entry): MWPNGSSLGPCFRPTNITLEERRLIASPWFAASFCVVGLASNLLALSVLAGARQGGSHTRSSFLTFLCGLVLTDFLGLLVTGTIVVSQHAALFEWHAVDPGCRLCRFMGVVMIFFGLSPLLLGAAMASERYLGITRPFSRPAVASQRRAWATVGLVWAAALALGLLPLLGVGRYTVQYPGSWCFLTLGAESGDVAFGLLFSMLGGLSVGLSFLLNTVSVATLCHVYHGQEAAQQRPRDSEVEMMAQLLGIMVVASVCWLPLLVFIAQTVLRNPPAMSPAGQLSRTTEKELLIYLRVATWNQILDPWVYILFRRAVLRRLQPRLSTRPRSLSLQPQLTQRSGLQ

[5] = target: T1, Alpha-1A adrenergic receptor; type: functional, cell-based; remark: listed apart in the source
Histamine H3 receptor = Histamine H3 receptor (Homo sapiens, UniProt Q9Y5N1)
Histamine H3 receptor, sequence (Q9Y5N1 whole entry): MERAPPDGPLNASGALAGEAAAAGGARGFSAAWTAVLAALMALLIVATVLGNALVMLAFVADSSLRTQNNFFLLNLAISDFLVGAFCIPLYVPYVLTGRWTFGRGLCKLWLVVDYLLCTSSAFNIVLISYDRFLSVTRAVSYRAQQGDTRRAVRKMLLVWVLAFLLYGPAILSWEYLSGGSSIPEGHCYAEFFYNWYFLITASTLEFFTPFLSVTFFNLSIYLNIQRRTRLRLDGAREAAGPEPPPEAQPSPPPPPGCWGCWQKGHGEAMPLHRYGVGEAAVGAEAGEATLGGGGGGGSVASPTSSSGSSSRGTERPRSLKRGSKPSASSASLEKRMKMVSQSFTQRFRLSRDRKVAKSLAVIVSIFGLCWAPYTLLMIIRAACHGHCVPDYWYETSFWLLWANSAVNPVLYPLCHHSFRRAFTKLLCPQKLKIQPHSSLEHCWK

Acetylcholinesterase = Acetylcholinesterase (Homo sapiens, UniProt P22303); type: functional
Acetylcholinesterase, sequence (P22303 whole entry): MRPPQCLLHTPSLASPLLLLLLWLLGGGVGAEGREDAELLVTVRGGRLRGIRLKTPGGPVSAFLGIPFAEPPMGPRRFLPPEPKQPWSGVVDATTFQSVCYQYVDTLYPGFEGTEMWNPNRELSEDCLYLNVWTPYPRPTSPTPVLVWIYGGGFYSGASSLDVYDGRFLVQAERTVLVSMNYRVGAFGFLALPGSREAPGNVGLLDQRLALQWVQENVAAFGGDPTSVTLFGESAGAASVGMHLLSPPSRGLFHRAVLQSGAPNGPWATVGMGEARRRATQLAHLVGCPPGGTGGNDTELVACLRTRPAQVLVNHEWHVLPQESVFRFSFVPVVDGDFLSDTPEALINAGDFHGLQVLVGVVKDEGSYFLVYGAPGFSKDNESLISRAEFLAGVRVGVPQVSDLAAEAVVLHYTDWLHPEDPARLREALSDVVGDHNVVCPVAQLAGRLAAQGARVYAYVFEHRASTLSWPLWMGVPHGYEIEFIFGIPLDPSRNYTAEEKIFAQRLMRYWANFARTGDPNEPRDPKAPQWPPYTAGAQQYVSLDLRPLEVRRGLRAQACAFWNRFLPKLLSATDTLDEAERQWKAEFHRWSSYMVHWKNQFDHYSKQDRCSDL

D(3) dopamine receptor = D(3) dopamine receptor (Homo sapiens, UniProt P35462)
D(3) dopamine receptor, sequence (P35462 whole entry): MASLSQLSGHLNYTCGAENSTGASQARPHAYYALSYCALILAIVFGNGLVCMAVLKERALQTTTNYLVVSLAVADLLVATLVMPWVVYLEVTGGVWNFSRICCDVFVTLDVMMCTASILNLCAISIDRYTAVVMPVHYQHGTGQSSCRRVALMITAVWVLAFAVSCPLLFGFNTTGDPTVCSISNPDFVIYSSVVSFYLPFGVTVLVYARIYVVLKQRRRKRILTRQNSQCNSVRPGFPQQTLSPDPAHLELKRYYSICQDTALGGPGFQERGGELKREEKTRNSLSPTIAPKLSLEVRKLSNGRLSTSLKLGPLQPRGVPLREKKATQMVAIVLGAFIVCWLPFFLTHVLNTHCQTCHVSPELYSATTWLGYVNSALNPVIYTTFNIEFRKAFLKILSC

Prothrombin = Prothrombin (Homo sapiens, UniProt P00734); type: functional
[6] = target: cGMP-inhibited 3',5'-cyclic phosphodiesterase 3A (Homo sapiens, UniProt Q14432); type: functional
cGMP-inhibited 3',5'-cyclic phosphodiesterase 3A, sequence (Q14432 whole entry): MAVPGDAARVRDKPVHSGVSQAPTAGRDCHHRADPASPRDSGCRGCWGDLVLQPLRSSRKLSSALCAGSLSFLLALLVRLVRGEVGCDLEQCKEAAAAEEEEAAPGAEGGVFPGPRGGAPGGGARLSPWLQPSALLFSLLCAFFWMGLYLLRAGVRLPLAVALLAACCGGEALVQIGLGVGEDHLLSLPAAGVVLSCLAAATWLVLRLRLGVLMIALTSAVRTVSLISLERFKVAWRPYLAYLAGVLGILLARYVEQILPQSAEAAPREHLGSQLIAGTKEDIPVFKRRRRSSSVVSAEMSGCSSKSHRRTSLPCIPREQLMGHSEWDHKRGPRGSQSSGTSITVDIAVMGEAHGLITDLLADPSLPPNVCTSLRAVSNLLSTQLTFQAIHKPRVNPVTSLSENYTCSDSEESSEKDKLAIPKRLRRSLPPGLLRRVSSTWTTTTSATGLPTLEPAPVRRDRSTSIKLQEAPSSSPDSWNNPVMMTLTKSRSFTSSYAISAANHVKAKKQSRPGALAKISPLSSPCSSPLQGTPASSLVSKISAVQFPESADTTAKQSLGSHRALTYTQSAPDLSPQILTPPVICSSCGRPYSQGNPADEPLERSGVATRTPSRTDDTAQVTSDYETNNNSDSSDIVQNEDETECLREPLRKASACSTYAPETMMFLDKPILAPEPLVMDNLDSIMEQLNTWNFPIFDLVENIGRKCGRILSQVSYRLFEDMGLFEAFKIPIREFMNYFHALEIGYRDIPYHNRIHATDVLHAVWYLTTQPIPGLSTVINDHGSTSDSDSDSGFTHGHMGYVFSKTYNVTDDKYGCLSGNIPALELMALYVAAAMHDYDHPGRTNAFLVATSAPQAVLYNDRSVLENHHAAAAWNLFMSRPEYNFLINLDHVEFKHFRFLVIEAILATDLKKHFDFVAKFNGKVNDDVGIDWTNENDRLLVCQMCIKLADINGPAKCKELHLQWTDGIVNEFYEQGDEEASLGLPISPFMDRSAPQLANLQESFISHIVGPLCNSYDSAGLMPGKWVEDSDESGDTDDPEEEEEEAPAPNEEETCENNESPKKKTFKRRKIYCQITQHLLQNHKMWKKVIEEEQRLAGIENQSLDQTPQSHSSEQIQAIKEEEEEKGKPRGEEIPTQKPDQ

Thromboxane A2 receptor [7] = target: T3, Thromboxane A2 receptor; type: functional, cell-based
Thromboxane A2 receptor [8] = target: T3, Thromboxane A2 receptor; type: functional, cell-based; remark: listed apart in the source
[9] = target: Muscarinic acetylcholine receptor M3 (Homo sapiens, UniProt P20309)
Muscarinic acetylcholine receptor M3, sequence (P20309 whole entry): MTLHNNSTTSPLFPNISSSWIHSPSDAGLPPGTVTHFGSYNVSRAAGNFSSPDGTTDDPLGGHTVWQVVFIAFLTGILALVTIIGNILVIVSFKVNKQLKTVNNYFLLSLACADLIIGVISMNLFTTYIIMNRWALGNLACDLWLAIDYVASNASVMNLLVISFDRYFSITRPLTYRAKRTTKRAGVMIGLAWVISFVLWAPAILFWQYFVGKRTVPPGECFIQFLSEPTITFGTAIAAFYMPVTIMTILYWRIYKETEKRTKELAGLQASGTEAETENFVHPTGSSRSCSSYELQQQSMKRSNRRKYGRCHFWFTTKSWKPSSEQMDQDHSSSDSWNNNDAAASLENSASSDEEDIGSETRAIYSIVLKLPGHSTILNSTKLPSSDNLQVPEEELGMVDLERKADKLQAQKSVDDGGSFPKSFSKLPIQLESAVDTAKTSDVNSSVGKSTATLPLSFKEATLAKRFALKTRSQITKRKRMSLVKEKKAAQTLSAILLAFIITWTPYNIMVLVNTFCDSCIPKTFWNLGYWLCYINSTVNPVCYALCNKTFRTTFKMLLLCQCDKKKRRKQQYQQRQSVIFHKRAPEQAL

[10] = target: 5-hydroxytryptamine receptor 2A (Homo sapiens, UniProt P28223); type: functional, cell-based
5-hydroxytryptamine receptor 2A, sequence (P28223 whole entry): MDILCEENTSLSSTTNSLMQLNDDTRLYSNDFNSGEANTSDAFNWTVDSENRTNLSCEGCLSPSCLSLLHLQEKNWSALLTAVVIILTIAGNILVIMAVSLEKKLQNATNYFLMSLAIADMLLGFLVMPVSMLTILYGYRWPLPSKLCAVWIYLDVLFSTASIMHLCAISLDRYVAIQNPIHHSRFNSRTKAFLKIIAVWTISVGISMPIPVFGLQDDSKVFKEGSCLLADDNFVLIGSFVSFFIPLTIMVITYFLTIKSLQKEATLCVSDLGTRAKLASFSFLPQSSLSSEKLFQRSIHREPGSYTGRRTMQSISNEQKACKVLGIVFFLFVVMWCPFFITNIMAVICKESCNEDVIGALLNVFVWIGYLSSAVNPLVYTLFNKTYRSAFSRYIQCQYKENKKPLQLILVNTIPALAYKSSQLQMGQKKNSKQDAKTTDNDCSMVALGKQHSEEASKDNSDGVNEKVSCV

Histamine H1 receptor = Histamine H1 receptor (Homo sapiens, UniProt P35367)
Histamine H1 receptor, sequence (P35367 whole entry): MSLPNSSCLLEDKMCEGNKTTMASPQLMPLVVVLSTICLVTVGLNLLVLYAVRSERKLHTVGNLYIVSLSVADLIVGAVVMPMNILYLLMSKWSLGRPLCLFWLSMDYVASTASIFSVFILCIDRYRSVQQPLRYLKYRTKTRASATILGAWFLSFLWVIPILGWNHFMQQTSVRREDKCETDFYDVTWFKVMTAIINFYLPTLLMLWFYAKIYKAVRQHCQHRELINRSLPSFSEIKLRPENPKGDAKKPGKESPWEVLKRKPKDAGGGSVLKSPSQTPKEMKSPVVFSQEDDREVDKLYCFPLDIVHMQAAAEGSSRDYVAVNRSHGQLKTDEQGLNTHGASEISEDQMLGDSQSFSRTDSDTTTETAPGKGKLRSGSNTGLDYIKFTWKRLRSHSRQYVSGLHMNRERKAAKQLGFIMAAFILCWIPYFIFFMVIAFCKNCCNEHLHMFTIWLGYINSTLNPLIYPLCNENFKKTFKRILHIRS
Further: assay procedure not described here.

Row | SMILES | AC50 [1] [µM] | AC50 (Vasopressin V1a receptor) [µM] | AC50 [2] [µM] | AC50 [3] [µM] | AC50 (Thromboxane A2 receptor [4]) [µM] | AC50 [5] [µM] | AC50 (Histamine H3 receptor) [µM] | AC50 (Acetylcholinesterase) [µM] | AC50 (D(3) dopamine receptor) [µM] | AC50 (Prothrombin) [µM] | AC50 [6] [µM] | AC50 (Thromboxane A2 receptor [7]) [µM] | AC50 (Thromboxane A2 receptor [8]) [µM] | AC50 [9] [µM] | AC50 [10] [µM] | AC50 (Histamine H1 receptor) [µM]
1 | CCOC(=O)[C@H](CCc1ccccc1)N[C@@H](C)C(=O)N1CCC[C@H]1C(=O)O | > 30 | > 10 | > 30 | > 10 | > 30 | > 30 | > 10 | – | – | – | – | – | – | – | – | –
2 | C[C@H]1O[C@H](O[C@H]2[C@H](O)[C@@H](O)[C@@H](O[C@H]3[C@H](O)[C@@H](O)C(O)O[C@@H]3CO)O[C@@H]2CO)[C@H](O)[C@@H](O)[C@@H]1N[C@H]1C=C(CO)[C@@H](O)[C@H](O)[C@H]1O (stereo partly drawn) [ACARBOSE] | > 30 | > 30 | > 30 | > 10 | > 30 | > 30 | > 30 | > 30 | > 30 | > 30 | 17.6 | > 30 | > 30 | – | – | –
3 | CC(N)Cc1ccccc1 (stereo not drawn) [AMPHETAMINE] | > 30 | > 30 | > 30 | > 10 | > 30 | > 30 | > 30 | – | – | – | – | – | – | > 30 | > 30 | –
4 | COC(=O)N[C@H](C(=O)N[C@@H](Cc1ccccc1)[C@@H](O)CN(Cc1ccc(-c2ccccn2)cc1)NC(=O)[C@@H](NC(=O)OC)C(C)(C)C)C(C)(C)C [ATAZANAVIR] | – | > 30 | > 30 | 1.06 | > 30 | – | > 10 | – | – | – | – | – | – | > 30 | > 10 | > 10
5 | CN1CCCC(n2nc(Cc3ccc(Cl)cc3)c3ccccc3c2=O)CC1 (stereo not drawn) [AZELASTINE] | > 30 | > 30 | – | – | – | 1.1 | 16 | – | – | – | – | – | – | > 30 | 4.6 | –
6 | CC(C)NCC(O)COc1ccc(COCCOC(C)C)cc1 (stereo not drawn) [BISOPROLOL] | – | > 10 | > 30 | > 10 | > 30 | – | > 10 | – | – | – | – | – | – | > 30 | > 30 | > 10
7 | CCC[C@@H]1C[C@@H](C(=O)N[C@@H]([C@H]2O[C@H](SC)[C@H](O)[C@@H](O)[C@H]2O)[C@H](C)Cl)N(C)C1 [CLINDAMYCIN] | > 30 | > 10 | > 30 | > 10 | > 30 | > 30 | > 10 | – | – | – | – | – | – | – | – | –
8 | O=C(O)c1cc(-c2ccc(F)cc2F)ccc1O [DIFLUNISAL] | – | – | – | > 10 | > 10 | – | – | – | – | – | – | – | – | – | – | –
9 | O=C1c2ccccc2C(=O)C1C(=O)C(c1ccccc1)c1ccccc1 [DIPHENADIONE] | – | – | – | – | – | – | – | > 30 | > 30 | > 30 | > 30 | 7.02 | 1.84 | – | – | –
10 | C#C[C@]1(O)CC[C@H]2[C@@H]3CCc4cc(O)ccc4[C@H]3CC[C@@]21C [ETHINYL ESTRADIOL] | – | > 10 | > 30 | > 10 | 15 | – | > 10 | > 30 | > 30 | > 30 | > 30 | > 30 | > 10 | – | – | –
11 | NC(N)=Nc1nc(CSCCC(N)=NS(N)(=O)=O)cs1 [FAMOTIDINE] | > 30 | > 10 | > 30 | > 10 | > 30 | > 30 | > 10 | – | – | – | – | – | – | – | – | –
12 | C[C@@H]1O[C@@H]1P(=O)(O)O [FOSFOMYCIN] | – | > 10 | – | > 10 | > 10 | – | – | – | – | – | – | – | – | > 30 | > 10 | > 10
13 | NS(=O)(=O)c1cc2c(cc1Cl)NCNS2(=O)=O [HYDROCHLOROTHIAZIDE] | – | > 10 | > 30 | > 10 | > 30 | – | > 10 | – | – | – | – | – | – | – | – | –
14 | CC(C)NNC(=O)c1ccncc1 [IPRONIAZID] | > 30 | – | – | – | – | > 30 | > 30 | – | – | – | – | – | – | – | – | –
15 | NC[C@H]1O[C@H](O[C@H]2[C@H](O)[C@@H](O[C@H]3O[C@H](CO)[C@@H](O)[C@H](N)[C@H]3O)[C@H](N)C[C@@H]2N)[C@H](O)[C@@H](O)[C@@H]1O [KANAMYCIN] | > 30 | – | – | > 30 | > 10 | > 30 | – | – | – | – | – | – | – | – | – | –
16 | CN1C(=O)CC(C)(c2ccccc2)C1=O (stereo not drawn) [METHSUXIMIDE] | – | > 10 | – | > 10 | > 10 | – | – | – | – | – | – | – | – | > 30 | > 10 | > 10
17 | C[C@H]1C[C@@H]2[C@H]([C@@H](O)C[C@@]3(C)[C@H]2CC[C@]3(O)C(=O)CO)[C@@]2(C)C=CC(=O)C=C12 [METHYLPREDNISOLONE] | – | – | – | > 10 | > 10 | – | – | – | – | – | – | – | – | – | – | –
18 | CCN(CC)CCNC(=O)c1cc(Cl)c(N)cc1OC [METOCLOPRAMIDE] | > 30 | > 10 | > 30 | > 10 | > 30 | > 30 | > 10 | – | – | – | – | – | – | – | – | –
19 | CC(C)(C(=O)c1cccnc1)c1cccnc1 [METYRAPONE] | – | – | – | > 10 | > 10 | – | – | – | – | – | – | – | – | – | – | –
20 | Cc1cccc(C)c1OCC(C)N (stereo not drawn) [MEXILETINE] | > 30 | – | > 30 | – | – | > 30 | > 30 | – | – | – | – | – | – | – | – | –
21 | CCc1nn(CCCN2CCN(c3cccc(Cl)c3)CC2)c(=O)n1CCOc1ccccc1 [NEFAZODONE] | 2.2 | > 10 | > 30 | 5.46 | 23.9 | – | – | – | – | – | – | – | – | > 10 | – | 0.41
22 | COC(=O)C1=C(C)NC(C)=C(C(=O)OCC(C)C)C1c1ccccc1[N+](=O)[O-] (stereo not drawn) [NISOLDIPINE] | > 30 | – | – | > 10 | > 10 | 11 | – | – | – | – | – | – | – | – | – | –
23 | NC1=NC(=O)C(c2ccccc2)O1 (stereo not drawn) [PEMOLINE] | – | – | > 30 | > 10 | > 30 | – | > 10 | – | – | – | – | – | – | – | – | –
24 | CC[C@H](C)C(=O)O[C@H]1C[C@H](O)C=C2C=C[C@H](C)[C@H](CC[C@@H](O)C[C@@H](O)CC(=O)O)[C@H]21 [PRAVASTATIN] | > 30 | – | – | > 10 | – | > 30 | > 30 | – | – | – | – | – | – | – | – | –
25 | CNC(=O)c1cc(Oc2ccc(NC(=O)Nc3ccc(Cl)c(C(F)(F)F)c3)cc2)ccn1 [SORAFENIB] | > 30 | > 30 | > 10 | 23 | 16.3 | 15 | > 30 | – | – | – | – | – | – | > 30 | – | > 30
26 | CC(C(=O)O)c1ccc(C(=O)c2cccs2)cc1 (stereo not drawn) [SUPROFEN] | – | > 10 | – | > 10 | > 10 | – | > 10 | – | – | – | – | – | – | > 30 | > 10 | > 10
27 | Cc1ccc(C(=O)c2cc(O)c(O)c([N+](=O)[O-])c2)cc1 [TOLCAPONE] | – | > 10 | – | > 10 | > 10 | – | > 10 | – | – | – | – | – | – | > 30 | > 10 | > 10
28 | NC[C@H]1CC[C@H](C(=O)O)CC1 [TRANEXAMIC ACID] | – | – | – | > 10 | > 10 | – | – | – | – | – | – | – | – | – | – | –
29 | OCc1cc([C@@H](O)CNCCCCCCOCCOCc2c(Cl)cccc2Cl)ccc1O [VILANTEROL] | 1.1 | > 30 | – | – | – | – | > 30 | – | – | – | – | – | – | > 30 | 23 | > 30
